Test results taken from patent US11008346B2, “Beta-lactamase inhibitors” (priority 2014, dated 2021).

How the values were obtained:
[1] = target: T1, VIM-2 metallo β-lactamase (Pseudomonas aeruginosa, UniProt Q9K2N0); test: β-lactamase enzyme inhibition, VIM-2; assay type: biochemical; details: Nitrocefin 100 μM, 486 nm; 15 min at 37° C. preincubation; read-out: IC50 VIM-2 (Class B)
T1 construct: made in house; host or cells: E. coli BL21(DE3)
In short: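 VIM-2 purified by Q sepharose anion exchange (50 mM Hepes pH 7.5, 0-600 mM NaCl gradient, two runs, >90% purity). Enzyme preincubated with inhibitor 15 min at 37° C; nitrocefin 100 μM final, absorbance at 486 nm followed 10 min. IC50 from initial hydrolysis rates versus inhibitor-free controls.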

[2] = test system: P. aeruginosa Ps296 expressing VIM-2; test: broth microdilution MIC, P. aeruginosa VIM-2; assay type: cell-based; details: Fixed Mero (meropenem) 4 μg/mL
In short: (§1)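 First, strains were grown 3-5 hours in CAMHB; then compound dilutions (32 to 0.25 μg/mL final) received a beta-lactam overlay at 4 μg/mL final. Finally, plates were inoculated per CLSI and incubated 16-20 hours at 37° C.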

p99 AmpC β-lactamase = target: T2, p99 AmpC β-lactamase (Enterobacter cloacae, UniProt P05364); test: β-lactamase enzyme inhibition, p99 AmpC; assay type: biochemical
T2 construct: made in house; host or cells: E. coli BL21(DE3)
T2 sequence (P05364 21-381): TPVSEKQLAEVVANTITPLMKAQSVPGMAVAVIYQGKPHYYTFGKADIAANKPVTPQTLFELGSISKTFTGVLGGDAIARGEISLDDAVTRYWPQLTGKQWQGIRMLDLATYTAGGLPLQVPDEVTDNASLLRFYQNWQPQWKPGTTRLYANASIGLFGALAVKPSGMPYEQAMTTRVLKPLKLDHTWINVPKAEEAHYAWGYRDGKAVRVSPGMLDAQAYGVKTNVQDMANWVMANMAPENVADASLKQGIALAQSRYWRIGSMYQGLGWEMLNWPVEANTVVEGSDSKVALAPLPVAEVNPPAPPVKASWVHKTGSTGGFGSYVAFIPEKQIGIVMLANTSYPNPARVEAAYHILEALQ
In short: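 Native untagged E. cloacae p99 AmpC was expressed in E. coli BL21(DE3) and purified by cation exchange and gel filtration. Enzyme was preincubated with inhibitor at 37°C for 15 min.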

[3] = test system: K. pneumoniae A-1797 expressing KPC-2 and VIM-4; test: broth microdilution MIC, K. pneumoniae KPC-2 and VIM-4; assay type: cell-based; details: Fixed Mero (meropenem) 4 μg/mL
In short: as §1

KPC-2 β-lactamase = target: T3, KPC-2 β-lactamase (Klebsiella pneumoniae, UniProt Q9F663); test: β-lactamase enzyme inhibition, KPC-2; assay type: biochemical; details: imipenem substrate, 300 nm; 15 min at 37° C. preincubation; read-out: IC50 KPC-2 (Class A)
T3 construct: made in house; host or cells: E. coli BL21(DE3)
T3 sequence (Q9F663 25-293, looked up): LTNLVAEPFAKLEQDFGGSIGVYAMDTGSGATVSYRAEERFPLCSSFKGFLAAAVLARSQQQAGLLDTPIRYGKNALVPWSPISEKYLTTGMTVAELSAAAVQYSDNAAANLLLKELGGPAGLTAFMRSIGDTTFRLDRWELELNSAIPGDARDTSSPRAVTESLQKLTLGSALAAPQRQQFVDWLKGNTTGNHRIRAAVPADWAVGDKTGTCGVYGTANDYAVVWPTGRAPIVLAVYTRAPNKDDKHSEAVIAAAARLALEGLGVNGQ
In short: (§2)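 Native untagged enzymes expressed in E. coli BL21(DE3) and purified by cation exchange and gel filtration were preincubated with inhibitor for 15 min at 37° C. Hydrolysis was followed for 10 min: nitrocefin (100 μM final, 486 nm) for OXA-1 and p99 AmpC, imipenem (300 nm) for KPC-2, cefotaxime (260 nm) for SHV-5; IC50 from initial rates.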

OXA-1 β-lactamase = target: T4, OXA-1 β-lactamase (Escherichia coli, UniProt P13661); test: β-lactamase enzyme inhibition, OXA-1; assay type: biochemical; details: Nitrocefin 100 μM, 486 nm; 15 min at 37° C. preincubation; read-out: IC50 OXA-1 (Class D)
T4 construct: made in house; host or cells: E. coli BL21(DE3)
T4 sequence (P13661 26-276): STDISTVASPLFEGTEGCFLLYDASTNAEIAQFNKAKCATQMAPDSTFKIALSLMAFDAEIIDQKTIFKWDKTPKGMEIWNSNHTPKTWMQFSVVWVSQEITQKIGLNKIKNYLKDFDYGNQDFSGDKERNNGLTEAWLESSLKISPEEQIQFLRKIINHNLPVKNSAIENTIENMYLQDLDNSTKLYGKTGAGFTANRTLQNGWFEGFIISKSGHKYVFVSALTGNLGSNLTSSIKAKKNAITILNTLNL
In short: as §2

[4] = test system: K. pneumoniae 156319 expressing KPC-3; test: broth microdilution MIC, K. pneumoniae KPC-3; assay type: cell-based; details: Fixed Mero (meropenem) 4 μg/mL
In short: as §1

SHV-5 β-lactamase = target: T5, SHV-5 β-lactamase (Klebsiella pneumoniae, UniProt P0A3M1); test: β-lactamase enzyme inhibition, SHV-5; assay type: biochemical
T5 construct: made in house; host or cells: E. coli BL21(DE3)
T5 sequence (P0A3M1 22-286): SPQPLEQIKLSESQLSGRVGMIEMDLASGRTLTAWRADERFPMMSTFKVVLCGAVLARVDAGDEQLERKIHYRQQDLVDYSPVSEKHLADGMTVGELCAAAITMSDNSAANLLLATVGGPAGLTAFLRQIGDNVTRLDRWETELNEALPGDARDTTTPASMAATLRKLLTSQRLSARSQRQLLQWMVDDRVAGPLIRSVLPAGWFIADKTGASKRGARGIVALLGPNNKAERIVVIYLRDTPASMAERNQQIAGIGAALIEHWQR
In short: as §2

[5] = test system: E. cloacae 144200 expressing Class C P99 AmpC; test: broth microdilution MIC, E. cloacae P99; assay type: cell-based; details: Fixed CAZ (ceftazidime) 4 μg/mL
In short: as §1

[6] = test system: E. coli ESBL4 expressing CTX-M-15; test: broth microdilution MIC, E. coli CTX-M-15; assay type: cell-based; details: Fixed CAZ (ceftazidime) 4 μg/mL
In short: as §1

[7] = test system: S. aureus MSSA-7 producing penicillinase PC-1; test: broth microdilution MIC, S. aureus PC-1; assay type: cell-based; details: Fixed Pip (piperacillin) 4 μg/mL
In short: as §1

| SMILES | IC50 [1] [nM] | MIC of exemplary compounds in presence of fixed β-lactams, P. aerug. Ps296 VIM-2 [2] | IC50 (p99 AmpC β-lactamase) [nM] | MIC of exemplary compounds in presence of fixed β-lactams, K.P. A-1797 KPC-2 VIM-4 [3] | IC50 (KPC-2 β-lactamase) [nM] | IC50 (OXA-1 β-lactamase) [nM] | MIC of exemplary compounds in presence of fixed β-lactams, K.P. 156319 KPC-3 [4] | IC50 (SHV-5 β-lactamase) [nM] | MIC of exemplary compounds in presence of fixed β-lactams, E. cl. 144200 p99 AmpC [5] | MIC of exemplary compounds in presence of fixed β-lactams, E. coli ESBL4 CTX-M-15 [6] | MIC of exemplary compounds in presence of fixed β-lactams, S. aureus MSSA-7 PC-1 [7] |
| --- | --- | --- | --- | --- | --- | --- | --- | --- | --- | --- | --- |
| O=C(CCn1ccnc1)N[C@H]1Cc2cccc(C(=O)O)c2OB1O [Example 29, (R)-2-Hydroxy-3-(3-imidazol-1-yl-propionylamino)-3,4-dihydro-2H-benzo[e][1,2]oxaborinine-8-carboxylic acid] | 1000 to 10000 | C (C represents the MIC in the presence of ≤4 g/mL of a β-lactamase inhibitor) | < 100 | A (A represents an MIC of the fixed β-lactam antibiotic in the presence of >32 g/mL of a β-lactamase inhibitor) | < 100 | < 100 | C (C represents the MIC in the presence of ≤4 g/mL of a β-lactamase inhibitor) | < 100 | C (C represents the MIC in the presence of ≤4 g/mL of a β-lactamase inhibitor) | C (C represents the MIC in the presence of ≤4 g/mL of a β-lactamase inhibitor) | C (C represents the MIC in the presence of ≤4 g/mL of a β-lactamase inhibitor) |
| CCOCC(=O)N[C@H]1Cc2cccc(C(=O)O)c2OB1O [Example 25, (R)-3-(2-ethoxyacetamido)-2-hydroxy-3,4-dihydro-2H-benzo[e][1,2]oxaborinine-8-carboxylic acid] | 1000 to 10000 | C (C represents the MIC in the presence of ≤4 g/mL of a β-lactamase inhibitor) | < 100 | B (B represents the MIC in the presence of between 8 and 32 g/mL of a β-lactamase inhibitor) | < 100 | < 100 | C (C represents the MIC in the presence of ≤4 g/mL of a β-lactamase inhibitor) | < 100 | C (C represents the MIC in the presence of ≤4 g/mL of a β-lactamase inhibitor) | C (C represents the MIC in the presence of ≤4 g/mL of a β-lactamase inhibitor) | C (C represents the MIC in the presence of ≤4 g/mL of a β-lactamase inhibitor) |
| CC(CCC(=O)N[C@H]1Cc2cccc(C(=O)O)c2OB1O)=NO [Example 17, (R)-2-Hydroxy-3-(4-hydroxyimino-pentanoylamino)-3,4-dihydro-2H-benzo[e][1,2]oxaborinine-8-carboxylic acid] | 1000 to 10000 | C (C represents the MIC in the presence of ≤4 g/mL of a β-lactamase inhibitor) | < 100 | B (B represents the MIC in the presence of between 8 and 32 g/mL of a β-lactamase inhibitor) | < 100 | < 100 | B (B represents the MIC in the presence of between 8 and 32 g/mL of a β-lactamase inhibitor) | < 100 | C (C represents the MIC in the presence of ≤4 g/mL of a β-lactamase inhibitor) | C (C represents the MIC in the presence of ≤4 g/mL of a β-lactamase inhibitor) | C (C represents the MIC in the presence of ≤4 g/mL of a β-lactamase inhibitor) |
